Results from patent US10961301B2, “Cell-penetrating anti-DNA antibodies and uses thereof inhibit DNA repair” (Yale University, priority 2011, dated 2021).

Legend:
[1] = test system: BRCA2-proficient PEO1 C4-2 ovarian cancer cells; details: 3 days after treatment; 3 nM doxorubicin, 10 μM 3E10
[2] = test system: BRCA2-deficient PEO1 ovarian cancer cells; details: 3 days after treatment; 3 nM doxorubicin, 10 μM 3E10

COc1cccc2c1C(=O)c1c(O)c3c(c(O)c1C2=O)C[C@@](O)(C(=O)CO)C[C@@H]3O[C@H]1C[C@H](N)[C@H](O)[C@H](C)O1 [doxorubicin]
cell death, BRCA2-proficient cells [1]: not significantly toxic | cell death, BRCA2-deficient cells [2]: not significantly toxic
